Structures are written as SMILES. ≈ marks a conversion by molar mass, not a printed value.

This data set can be described thus: Solubility pH 7. The settings on record: pH 7, aqueous buffer.

`C[C@H](NC(=O)CN1CCOCC1)C(=O)N[C@@H](Cc1ccc2c(c1)CCNS2(=O)=O)C(=O)N[C@@H](CC1CCCC1)C(=O)[C@@]1(C)CO1` [Compound C-1091, (S)-N-((S)-3-cyclopentyl-1-((R)-2-methyloxiran-2-yl)-1-oxopropan-2-yl)-3-(1,1-dioxido-3,4-dihydro-2H-benzo[e][1,2]thiazin-6-yl)-2-((S)-2-(2-morpholinoacetamido)propanamido)propanamide] registered a solubility of 230 µg/mL (≈ 356 µM).
In the case of `COc1ccc(C[C@H](NC(=O)[C@H](C)NC(=O)CN2CCOCC2)C(=O)N[C@@H](CC2CC(F)(F)C2)C(=O)[C@@]2(C)CO2)cc1` [Compound C-1093, (S)-N-((S)-3-(3,3-difluorocyclobutyl)-1-((R)-2-methyloxiran-2-yl)-1-oxopropan-2-yl)-3-(4-methoxyphenyl)-2-((S)-2-(2-morpholinoacetamido)propanamido)propanamide] it was 6110 µg/mL (≈ 10300 µM).
In the case of `COc1ccc(C[C@H](NC(=O)[C@H](C)NC(=O)CN2CCOCC2)C(=O)N[C@@H](C[C@H]2C[C@@H]3C[C@@H]3C2)C(=O)[C@@]2(C)CO2)cc1` [Compound C-1094, (S)-N-((S)-3-((1R,3s,5S)-bicyclo[3.1.0]hexan-3-yl)-1-((R)-2-methyloxiran-2-yl)-1-oxopropan-2-yl)-3-(4-methoxyphenyl)-2-((S)-2-(2-morholinoacetamido)propanamido)propanamide] it was 1670 µg/mL (≈ 2860 µM); in that of `COc1ccc(C[C@H](NC(=O)[C@@H](C)NC(=O)C2CCN(C)CC2)C(=O)N[C@@H](CC2=CCCC2)C(=O)[C@@]2(C)CO2)cc1` [Compound C-1098, N-((R)-1-(((S)-1-(((S)-3-(cyclopent-1-en-1-yl)-1-((R)-2-methyloxiran-2-yl)-1-oxopropan-2-yl)amino)-3-(4-methoxyphenyl)-1-oxopropan-2-yl)amino)-1-oxopropan-2-yl)-1-methylpiperidine-4-carboxamide], 7830 µg/mL (≈ 13800 µM).
In the case of `COc1ccc(C[C@H](NC(=O)[C@@H](C)NC(=O)[C@@H]2CCCN(C)C2)C(=O)N[C@@H](CC2=CCCC2)C(=O)[C@@]2(C)CO2)cc1` [Compound C-1099, (R)-N-((R)-1-(((S)-1-(((S)-3-(cyclopent-1-en-1-yl)-1-((R)-2-methyloxiran-2-yl)-1-oxopropan-2-yl)amino)-3-(4-methoxyphenyl)-1-oxopropan-2-yl)amino)-1-oxopropan-2-yl)-1-methylpiperidine-3-carboxamide] it was 7310 µg/mL (≈ 12900 µM).
Compound `COc1ccc(C[C@H](NC(=O)[C@H](C)NC(=O)CN2CCOCC2)C(=O)N[C@@H](CC2=CCCCC2)C(=O)[C@@]2(C)CO2)cc1O` [Compound C-1100] registered a solubility of 4570 µg/mL (≈ 7610 µM).
Consider `C[C@H](NC(=O)CN1CCOCC1)C(=O)NC(Cc1ccc2c(c1)COC(=O)N2)C(=O)N[C@@H](CC1CCCC1)C(=O)[C@@]1(C)CO1` (stereo partly drawn) [Compound C-1101, N-((S)-3-cyclopentyl-1-((R)-2-methyloxiran-2-yl)-1-oxopropan-2-yl)-2-((S)-2-(2-morpholinoacetamido)propanamido)-3-(2-oxo-2,4-dihydro-1H-benzo[d][1,3]oxazin-6-yl)propanamide], for which the solubility was determined as 4090 µg/mL (≈ 6670 µM).
Consider `C[C@H](NC(=O)CN1CCOCC1)C(=O)N[C@@H](Cc1ccc2c(c1)CCS(=O)(=O)N2)C(=O)N[C@@H](CC1CCCC1)C(=O)[C@@]1(C)CO1` [Compound C-1102, (S)-N-((S)-3-cyclopentyl-1-((R)-2-methyloxiran-2-yl)-1-oxopropan-2-yl)-3-(2,2-dioxido-3,4-dihydro-1H-benzo[c][1,2]thiazin-6-yl)-2-((S)-2-(2-morpholinoacetamido)propanamido)propanamide], for which the solubility was 3410 µg/mL (≈ 5260 µM).
With `COc1ccc(C[C@H](NC(=O)[C@@H](NC(=O)CN2CCOCC2)C2CC2)C(=O)N[C@@H](CC2CCCC2)C(=O)[C@@]2(C)CO2)cc1` [Compound C-1107, (S)-N-((S)-3-cyclopentyl-1-((R)-2-methyloxiran-2-yl)-1-oxopropan-2-yl)-2-((S)-2-cyclopropyl-2-(2-morpholinoacetamido)acetamido)-3-(4-methoxyphenyl)propanamide] the figure was 200 µg/mL (≈ 334 µM); with `C[C@H](NC(=O)CN1CCOCC1)C(=O)N[C@@H](Cc1ccc2c(c1)CNC(=O)O2)C(=O)N[C@@H](CC1CCCC1)C(=O)[C@@]1(C)CO1` [Compound C-1108, (S)-N-((S)-3-cyclopentyl-1-((R)-2-methyloxiran-2-yl)-1-oxopropan-2-yl)-2-((S)-2-(2-morpholinoacetamido)propanamido)-3-(2-oxo-3,4-dihydro-2H-benzo[e][1,3]oxazin-6-yl)propanamide], 4730 µg/mL (≈ 7710 µM).
In the case of `COc1ccc(C[C@H](NC(=O)[C@@H](C)NC(=O)[C@]2(C)CC[C@@H](O)CC2)C(=O)N[C@@H](CC2=CCCC2)C(=O)[C@@]2(C)CO2)cc1` [Compound C-1111, (1r,4R)-N-((R)-1-(((S)-1-(((S)-3-(Cyclopent-1-en-1-yl)-1-((R)-2-methyloxiran-2-yl)-1-oxopropan-2-yl)amino)-3-(4-methoxyphenyl)-1-oxopropan-2-yl)amino)-1-oxopropan-2-yl)-4-hydroxy-1-methylcyclohexanecarboxamide] it was 1070 µg/mL (≈ 1840 µM); in that of `COc1ccc(C[C@H](NC(=O)[C@@H](C)NC(=O)[C@]2(C)CC[C@H](O)CC2)C(=O)N[C@@H](CC2=CCCC2)C(=O)[C@@]2(C)CO2)cc1` [Compound C-1112, (1s,4S)-N-((R)-1-(((S)-1-(((S)-3-(cyclopent-1-en-1-yl)-1-((R)-2-methyloxiran-2-yl)-1-oxopropan-2-yl)amino)-3-(4-methoxyphenyl)-1-oxopropan-2-yl)amino)-1-oxopropan-2-yl)-4-hydroxy-1-methylcyclohexanecarboxamide], 1110 µg/mL (≈ 1910 µM); in that of `C[C@H](NC(=O)CN1CCOCC1)C(=O)N[C@@H](Cc1ccc(O)cc1)C(=O)N[C@@H](CC1CCCC1)C(=O)[C@@]1(C)CO1` [Compound C-1113, (S)-N-((S)-3-cyclopentyl-1-((R)-2-methyloxiran-2-yl)-1-oxopropan-2-yl)-3-(4-hydroxyphenyl)-2-((S)-2-(2-morpholinoacetamido)propanamido)propanamide], 3790 µg/mL (≈ 6780 µM).
In the case of `C[C@H](NC(=O)CN1CCOCC1)C(=O)N[C@@H](Cc1cccc(O)c1)C(=O)N[C@@H](CC1CCCC1)C(=O)[C@@]1(C)CO1` [Compound C-1114, (S)-N-((S)-3-cyclopentyl-1-((R)-2-methyloxiran-2-yl)-1-oxopropan-2-yl)-3-(3-hydroxyphenyl)-2-((S)-2-(2-morpholinoacetamido)propanamido)propanamide] it was 793 µg/mL (≈ 1420 µM).
`COc1ccc(C[C@H](NC(=O)[C@H](C)NC(=O)CN2CCS(=O)(=O)CC2)C(=O)N[C@@H](CC2=CCCC2)C(=O)[C@@]2(C)CO2)cc1` [Compound C-1115, (S)-N-((S)-3-(cyclopent-1-en-1-yl)-1-((R)-2-methyloxiran-2-yl)-1-oxopropan-2-yl)-2-((S)-2-(2-(1,1-dioxidothiomorpholino)acetamido)propanamido)-3-(4-methoxyphenyl)propanamide]: the solubility worked out at 496 µg/mL (≈ 801 µM).
In the case of `COc1ccc(C[C@H](NC(=O)[C@H](C)NC(=O)CN2CCNC(=O)C2)C(=O)N[C@@H](CC2=CCCC2)C(=O)[C@@]2(C)CO2)cc1` [Compound C-1120, (S)-N-((S)-3-(cyclopent-1-en-1-yl)-1-((R)-2-methyloxiran-2-yl)-1-oxopropan-2-yl)-3-(4-methoxyphenyl)-2-((S)-2-(2-(3-oxopiperazin-1-yl)acetamido)propanamido)propanamide] it was 8000 µg/mL (≈ 13700 µM).
With `COc1ccc(C[C@H](NC(=O)[C@H](C)NC(=O)CN2CCC(C)(O)CC2)C(=O)N[C@@H](CC2=CCCC2)C(=O)[C@@]2(C)CO2)cc1` [Compound C-1121, (S)-N-((S)-3-(cyclopent-1-en-1-yl)-1-((R)-2-methyloxiran-2-yl)-1-oxopropan-2-yl)-2-((S)-2-(2-(4-hydroxy-4-methylpiperidin-1-yl)acetamido)propanamido)-3-(4-methoxyphenyl)propanamide] the figure was 287 µg/mL (≈ 479 µM); with `COc1ccc(C[C@H](NC(=O)[C@H](C)NC(=O)CN2CCOCC2)C(=O)N[C@@H](CC2=CC(C)CC2)C(=O)[C@@]2(C)CO2)cc1` (stereo partly drawn) [Compound C-1122, (2S)-3-(4-methoxyphenyl)-N-((2S)-3-(3-methylcyclopent-1-en-1-yl)-1-((R)-2-methyloxiran-2-yl)-1-oxopropan-2-yl)-2-((S)-2-(2-morpholinoacetamido)propanamido)propanamide], 1830 µg/mL (≈ 3120 µM); with `C[C@H](NC(=O)CN1CCOCC1)C(=O)N[C@@H](Cc1ccc2[nH]ccc2c1)C(=O)N[C@@H](CC1CCCC1)C(=O)[C@@]1(C)CO1` [Compound C-1123, (S)-N-((S)-3-cyclopentyl-1-((R)-2-methyloxiran-2-yl)-1-oxopropan-2-yl)-3-(1H-indol-5-yl)-2-((S)-2-(2-morpholinoacetamido)propanamido)propanamide], 1470 µg/mL (≈ 2520 µM).
For the compound `C[C@H](NC(=O)CN1CCOCC1)C(=O)N[C@@H](Cc1ccc2cc[nH]c2c1)C(=O)N[C@@H](CC1CCCC1)C(=O)[C@@]1(C)CO1` [Compound C-1124, (S)-N-((S)-3-cyclopentyl-1-((R)-2-methyloxiran-2-yl)-1-oxopropan-2-yl)-3-(1H-indol-6-yl)-2-((S)-2-(2-morpholinoacetamido)propanamido)propanamide], the solubility worked out at 56.5 µg/mL (≈ 97.1 µM).
With `C[C@H](NC(=O)CN1CCOCC1)C(=O)N[C@@H](Cc1ccc(S(C)(=O)=O)cc1)C(=O)N[C@@H](CC1=CCCCC1)C(=O)[C@@]1(C)CO1` [Compound C-1126, (S)-N-((S)-3-(cyclohex-1-en-1-yl)-1-((R)-2-methyloxiran-2-yl)-1-oxopropan-2-yl)-3-(4-(methylsulfonyl)phenyl)-2-((S)-2-(2-morpholinoacetamido)propanamido)propanamide] the figure was 7280 µg/mL (≈ 11500 µM).
In the case of `C[C@H](NC(=O)CN1CCOCC1)C(=O)N[C@@H](CCc1ccccc1)C(=O)N[C@@H](CC1=CCCC1)C(=O)[C@@]1(C)CO1` [Compound C-1128, (S)-N-((S)-3-(Cyclopent-1-en-1-yl)-1-((R)-2-methyloxiran-2-yl)-1-oxopropan-2-yl)-2-((S)-2-(2-morpholinoacetamido)propanamido)-4-phenylbutanamide] it was 1370 µg/mL (≈ 2470 µM).

A word on the solubility: it is the concentration that dissolves in the medium under given conditions. Low values mean little dissolved substance, high ones much dissolved substance.
